The inhibition is the relative decrease from the control value, in per cent. The term IC50 denotes the concentration at which inhibition is half-maximal.

Read-outs that look alike come from different tables or passages of the source.

This is an account of results in US8853418B2, “Cyclopentylpyrazoles as N-type calcium channel blockers” (Janssen Pharmaceutica NV, priority 2012, dated 2014).

Assay [1] deals with N-type calcium channel (α1B (Cav2.2), β3 and α2δ subunits) (Homo sapiens, UniProt Q00975). The assay is described as follows: Functional Assay: Antagonism of N-Type Calcium Channel (FDSS calcium mobilization, KCl depolarization). It is filed as cell-based. The conditions noted are these: for IC50: HEK cell line, 50 mM KCl depolarization, six-point concentration-response, read-out: FDSS IC50. The procedure, abridged:
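HEK cells stably co-expressing α1B (Cav2.2), β3 and α2δ were loaded with calcium dye, then given compound with fluorescence recorded for 5 min before 50 mM KCl depolarisation and 3 min more reading. IC50 came from six-point curves of maximal fluorescence, normalised to KCl maximum and buffer minimum.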
For orientation: A change in cytosolic calcium serves as a functional read-out for many receptors and channels.

Another assay has as its target N-type calcium channel (Homo sapiens, UniProt Q00975). Put plainly: Automated Electrophysiology Assay (QPatch-HT whole-cell patch clamp; low- and high-frequency stimulation). It is filed as cell-based. In general terms: Patch clamp records ionic current or voltage across a cell membrane.
[2] abbreviates: high-frequency stimulation (15th pulse), read-out: QPatch at High Frequency % Inhibition.
[3] abbreviates: low frequency, read-out: QPatch at Low Frequency % Inhibition.
The mark [4] stands for this setting: 1 μM, high-frequency stimulation (15th pulse), read-out: QPatch at High Frequency % Inhibition.
The mark [5] stands for this setting: low frequency, 1 μM, read-out: QPatch at Low Frequency % Inhibition.

N-type calcium channel (α1B (Cav2.2), β3 and α2δ subunits), sequence (Q00975 whole entry): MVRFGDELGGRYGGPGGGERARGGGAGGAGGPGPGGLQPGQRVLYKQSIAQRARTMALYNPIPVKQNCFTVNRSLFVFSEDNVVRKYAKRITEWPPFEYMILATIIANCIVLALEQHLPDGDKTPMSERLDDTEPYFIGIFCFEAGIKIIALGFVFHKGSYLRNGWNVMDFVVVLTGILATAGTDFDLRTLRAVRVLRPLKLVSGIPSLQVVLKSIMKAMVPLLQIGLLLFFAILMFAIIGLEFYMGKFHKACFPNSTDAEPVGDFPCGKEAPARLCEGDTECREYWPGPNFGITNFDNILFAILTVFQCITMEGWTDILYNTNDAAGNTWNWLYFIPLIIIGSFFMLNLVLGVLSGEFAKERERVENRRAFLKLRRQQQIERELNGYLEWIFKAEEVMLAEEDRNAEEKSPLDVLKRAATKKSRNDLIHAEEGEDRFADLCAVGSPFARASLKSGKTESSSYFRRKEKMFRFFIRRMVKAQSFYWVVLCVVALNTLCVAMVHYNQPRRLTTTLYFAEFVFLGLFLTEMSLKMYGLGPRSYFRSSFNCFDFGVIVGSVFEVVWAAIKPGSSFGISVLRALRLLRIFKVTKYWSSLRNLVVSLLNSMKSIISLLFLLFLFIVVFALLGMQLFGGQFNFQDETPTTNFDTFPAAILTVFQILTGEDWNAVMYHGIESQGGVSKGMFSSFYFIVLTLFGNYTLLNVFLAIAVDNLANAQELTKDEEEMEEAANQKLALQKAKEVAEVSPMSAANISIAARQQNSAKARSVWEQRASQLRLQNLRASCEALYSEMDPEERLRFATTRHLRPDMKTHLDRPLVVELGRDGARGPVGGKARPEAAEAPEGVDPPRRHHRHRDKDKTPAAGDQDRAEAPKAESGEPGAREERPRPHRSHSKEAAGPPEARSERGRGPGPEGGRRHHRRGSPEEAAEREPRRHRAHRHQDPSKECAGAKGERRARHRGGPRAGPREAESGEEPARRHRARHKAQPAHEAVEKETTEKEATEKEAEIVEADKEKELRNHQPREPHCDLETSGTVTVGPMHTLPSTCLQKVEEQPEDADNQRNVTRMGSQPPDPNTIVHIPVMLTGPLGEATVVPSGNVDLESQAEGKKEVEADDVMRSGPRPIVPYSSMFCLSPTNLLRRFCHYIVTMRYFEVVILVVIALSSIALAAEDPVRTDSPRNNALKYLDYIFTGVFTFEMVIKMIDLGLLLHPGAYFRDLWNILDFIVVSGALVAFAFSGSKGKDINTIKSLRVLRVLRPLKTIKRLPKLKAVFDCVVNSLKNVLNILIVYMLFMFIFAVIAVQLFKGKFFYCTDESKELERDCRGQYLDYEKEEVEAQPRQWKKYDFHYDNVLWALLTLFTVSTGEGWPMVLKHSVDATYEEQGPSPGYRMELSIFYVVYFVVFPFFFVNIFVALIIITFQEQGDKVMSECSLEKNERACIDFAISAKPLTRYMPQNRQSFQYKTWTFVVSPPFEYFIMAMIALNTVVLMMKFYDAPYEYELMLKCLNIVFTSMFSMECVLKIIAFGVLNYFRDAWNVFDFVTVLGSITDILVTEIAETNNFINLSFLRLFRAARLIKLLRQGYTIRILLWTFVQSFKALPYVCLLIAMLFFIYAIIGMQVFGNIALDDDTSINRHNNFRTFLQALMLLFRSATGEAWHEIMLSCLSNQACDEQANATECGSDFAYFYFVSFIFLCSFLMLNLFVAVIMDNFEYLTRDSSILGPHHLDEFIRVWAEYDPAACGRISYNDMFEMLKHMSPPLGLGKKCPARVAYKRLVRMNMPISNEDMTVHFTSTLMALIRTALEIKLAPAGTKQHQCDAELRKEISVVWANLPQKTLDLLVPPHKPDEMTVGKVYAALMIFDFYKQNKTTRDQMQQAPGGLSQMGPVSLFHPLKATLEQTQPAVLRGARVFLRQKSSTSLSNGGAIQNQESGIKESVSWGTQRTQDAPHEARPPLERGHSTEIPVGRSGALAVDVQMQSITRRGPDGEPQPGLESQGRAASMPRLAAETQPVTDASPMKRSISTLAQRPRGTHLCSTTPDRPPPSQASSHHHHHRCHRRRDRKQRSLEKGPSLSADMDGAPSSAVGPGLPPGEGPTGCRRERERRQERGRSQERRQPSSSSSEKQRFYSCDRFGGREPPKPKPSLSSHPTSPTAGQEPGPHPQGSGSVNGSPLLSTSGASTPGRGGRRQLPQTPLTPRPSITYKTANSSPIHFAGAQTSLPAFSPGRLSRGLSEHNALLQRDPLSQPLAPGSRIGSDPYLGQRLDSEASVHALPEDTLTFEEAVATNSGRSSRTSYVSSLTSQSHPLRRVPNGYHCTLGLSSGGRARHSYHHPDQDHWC
N-type calcium channel (α1B (Cav2.2), β3 and α2δ subunits), sequence (P54284 whole entry partner): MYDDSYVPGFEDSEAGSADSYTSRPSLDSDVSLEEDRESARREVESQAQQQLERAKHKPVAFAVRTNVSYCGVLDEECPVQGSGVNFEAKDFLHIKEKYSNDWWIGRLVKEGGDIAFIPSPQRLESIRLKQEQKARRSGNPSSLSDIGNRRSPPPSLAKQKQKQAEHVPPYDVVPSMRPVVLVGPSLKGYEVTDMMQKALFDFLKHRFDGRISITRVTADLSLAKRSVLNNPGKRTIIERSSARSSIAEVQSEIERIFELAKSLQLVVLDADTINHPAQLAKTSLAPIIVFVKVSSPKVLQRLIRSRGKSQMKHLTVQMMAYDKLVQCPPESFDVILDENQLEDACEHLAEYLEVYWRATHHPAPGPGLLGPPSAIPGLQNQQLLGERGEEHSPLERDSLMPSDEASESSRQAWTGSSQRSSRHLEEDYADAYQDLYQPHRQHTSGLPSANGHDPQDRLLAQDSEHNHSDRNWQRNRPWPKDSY
N-type calcium channel (α1B (Cav2.2), β3 and α2δ subunits), sequence (P54289 25-946 partner limits assumed): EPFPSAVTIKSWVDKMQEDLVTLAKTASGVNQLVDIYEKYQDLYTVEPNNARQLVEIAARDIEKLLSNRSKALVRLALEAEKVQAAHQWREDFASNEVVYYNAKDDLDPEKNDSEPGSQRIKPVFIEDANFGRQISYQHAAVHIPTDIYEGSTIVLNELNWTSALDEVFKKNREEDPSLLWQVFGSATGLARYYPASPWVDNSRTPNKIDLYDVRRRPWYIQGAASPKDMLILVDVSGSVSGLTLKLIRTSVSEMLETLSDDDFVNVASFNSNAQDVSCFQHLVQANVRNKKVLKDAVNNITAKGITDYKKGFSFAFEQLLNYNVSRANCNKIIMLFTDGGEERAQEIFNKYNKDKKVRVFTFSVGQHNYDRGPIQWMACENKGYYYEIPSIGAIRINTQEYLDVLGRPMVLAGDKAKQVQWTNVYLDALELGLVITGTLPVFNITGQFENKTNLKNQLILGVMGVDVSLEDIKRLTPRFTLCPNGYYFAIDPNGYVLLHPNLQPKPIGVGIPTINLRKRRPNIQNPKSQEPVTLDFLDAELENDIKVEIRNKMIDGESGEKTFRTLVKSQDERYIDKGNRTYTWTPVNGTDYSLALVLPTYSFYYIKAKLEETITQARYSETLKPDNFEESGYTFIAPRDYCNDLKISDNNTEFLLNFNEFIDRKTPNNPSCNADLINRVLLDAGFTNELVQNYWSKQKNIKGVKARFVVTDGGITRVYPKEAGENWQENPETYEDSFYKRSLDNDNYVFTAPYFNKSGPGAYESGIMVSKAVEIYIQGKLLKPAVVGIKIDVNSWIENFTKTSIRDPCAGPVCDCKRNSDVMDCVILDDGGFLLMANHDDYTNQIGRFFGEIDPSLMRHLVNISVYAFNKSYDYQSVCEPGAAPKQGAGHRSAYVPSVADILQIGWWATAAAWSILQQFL
N-type calcium channel (α1B (Cav2.2), β3 and α2δ subunits), sequence (P54289 947-1103 partner limits assumed): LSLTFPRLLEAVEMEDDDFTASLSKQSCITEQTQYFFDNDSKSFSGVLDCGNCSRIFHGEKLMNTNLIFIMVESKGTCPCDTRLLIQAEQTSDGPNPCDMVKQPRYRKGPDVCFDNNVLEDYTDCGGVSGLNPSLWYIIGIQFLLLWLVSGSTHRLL
N-type calcium channel, sequence (Q00975 whole entry): as the sequence (Q00975 whole entry) above
N-type calcium channel, sequence (P54284 whole entry partner): as the sequence (P54284 whole entry partner) above
N-type calcium channel, sequence (P54289 25-946 partner limits assumed): as the sequence (P54289 25-946 partner limits assumed) above
N-type calcium channel, sequence (P54289 947-1103 partner limits assumed): as the sequence (P54289 947-1103 partner limits assumed) above

Turning to `COc1ccccc1-n1nc2c(c1-c1ccc(C#N)cc1)CC1(C2)OC(C)(C)C(C)(C)O1` [Compound 111, 4-[2-(2-methoxyphenyl)-4′,4′,5′,5′-tetramethyl-2,6-dihydro-4H-spiro[cyclopenta[c]pyrazole-5,2′-[1,3]dioxolan]-3-yl]benzonitrile], the inhibition at 0.33 µM in assay [1] (0.33 μM) worked out at 90%. Also, the half-maximal inhibitory concentration (IC50) in assay [1] stood at 3.7 nM. Moreover, the inhibition at 0.1 µM on N-type calcium channel (setting [2]) is 21%; at N-type calcium channel (setting [3]), -5%.

In the case of `COc1ccccc1-n1nc2c(c1-c1ccc(Cl)cc1)CC(NS(C)(=O)=O)C2` (stereo not shown) [Compound 32, N-[3-(4-chlorophenyl)-2-(2-methoxyphenyl)-2,4,5,6-tetrahydrocyclopenta[c]pyrazol-5-yl]methanesulfonamide], in assay [1], the IC50 amounted to 26 nM. Besides, the values for the inhibition at 0.1 µM at N-type calcium channel (setting [2]) and on N-type calcium channel (setting [3]) were 20% and 18%, respectively.

For `COc1ccccc1-n1nc2c(c1-c1ccc(Cl)cc1)CC1(C2)O[C@@H](C)[C@H](C)O1` [Compound 99, (4′S,5′S)-3-(4-chlorophenyl)-2-(2-methoxyphenyl)-4′,5′-dimethyl-2,6-dihydro-4H-spiro[cyclopenta[c]pyrazole-5,2′-[1,3]dioxolane]], the inhibition at 0.33 µM in assay [1] (0.33 μM) came to 93%. In addition, in assay [1], the IC50 turned out to be 13 nM. The inhibition at 0.1 µM was 34% at N-type calcium channel (setting [2]) and -4% at N-type calcium channel (setting [3]).

As to `COc1ccccc1-n1nc2c(c1-c1ccc(C#N)cc1)CC1(C2)OCC(C)(C)CO1` [Compound 91, 4-[2-(2-methoxyphenyl)-5′,5′-dimethyl-2,6-dihydro-4H-spiro[cyclopenta[c]pyrazole-5,2′-[1,3]dioxan]-3-yl]benzonitrile], in assay [1] (0.33 μM), the inhibition at 0.33 µM was found to be 89%. Besides, the IC50 in assay [1] was 19 nM. Further, the inhibition at 0.01 µM at N-type calcium channel (setting [2]) worked out at 20%; on N-type calcium channel (setting [3]), 19%. The inhibition at 0.1 µM amounted to 39% on N-type calcium channel (setting [2]) and 28% on N-type calcium channel (setting [3]). Besides, the inhibition at 1 µM stood at 61% at N-type calcium channel (setting [4]) and 40% at N-type calcium channel (setting [5]).

Consider `COc1ccccc1-n1nc2c(c1-c1ccc(Cl)cc1)CC(CCNC(C)=O)C2` (stereo not shown) [Compound 12, N-{2-[3-(4-chlorophenyl)-2-(2-methoxyphenyl)-2,4,5,6-tetrahydrocyclopenta[c]pyrazol-5-yl]ethyl}acetamide], for which the IC50 in assay [1] was found to be 70 nM. Further, the inhibition at 1 µM at N-type calcium channel (setting [4]) was found to be 26%; at N-type calcium channel (setting [5]) it was 15%.

On to `COc1ccccc1-n1nc2c(c1-c1ccc(Cl)cc1)C[C@H](O[Si](C)(C)C)C2` [Compound 69, (5S)-3-(4-chlorophenyl)-2-(2-methoxyphenyl)-5-[(trimethylsilyl)oxy]-2,4,5,6-tetrahydrocyclopenta[c]pyrazole], for which, in assay [1] (0.33 μM), the inhibition at 0.33 µM turned out to be 93%. Besides, the IC50 in assay [1] was 9.6 nM. Moreover, the figures for the inhibition at 0.1 µM at N-type calcium channel (setting [2]) and on N-type calcium channel (setting [3]) were 26% and 15%, respectively.

Regarding `COc1ccccc1-n1nc2c(c1-c1ccc(Cl)cc1)CC(c1cccnc1)C2` (stereo not shown) [Compound 63, 3-(4-chlorophenyl)-2-(2-methoxyphenyl)-5-pyridin-3-yl-2,4,5,6-tetrahydrocyclopenta[c]pyrazole], the inhibition at 0.33 µM in assay [1] (0.33 μM) worked out at 98%. Moreover, in assay [1], the IC50 was 8.6 nM. Moreover, the inhibition at 1 µM at N-type calcium channel (setting [4]) amounted to 62%; on N-type calcium channel (setting [5]), 40%.

Take `COc1ccccc1-n1nc2c(c1-c1ccc(N(C)C)nc1)CC1(C2)OCC(C)(C)CO1` [Compound 97, 5-[2-(2-methoxyphenyl)-5′,5′-dimethyl-2,6-dihydro-4H-spiro[cyclopenta[c]pyrazole-5,2′-[1,3]dioxan]-3-yl]-N,N-dimethylpyridin-2-amine]: in assay [1] (0.33 μM), the inhibition at 0.33 µM came to 88%. In assay [1], the IC50 was found to be 29 nM. For the same compound, the inhibition at 0.1 µM on N-type calcium channel (setting [2]) came to 33%; on N-type calcium channel (setting [3]) it was 27%.

Take `CCOC(=O)C1Cc2nn(-c3ccccc3OC)c(-c3ccc(Cl)cc3)c2C1` (stereo not shown) [Compound 5, ethyl 3-(4-chlorophenyl)-2-(2-methoxyphenyl)-2,4,5,6-tetrahydrocyclopenta[c]pyrazole-5-carboxylate]: the IC50 in assay [1] amounted to 43 nM. Further, the inhibition at 5 µM at N-type calcium channel (setting [2]) came to 85%; on N-type calcium channel (setting [3]) it was 82%.

In the case of `CCOc1ccccc1-n1nc2c(c1-c1ccc(Cl)cc1)C[C@@H](n1ccnc1)C2` [Compound 43, (5R)-3-(4-chlorophenyl)-2-(2-ethoxyphenyl)-5-(1H-imidazol-1-yl)-2,4,5,6-tetrahydrocyclopenta[c]pyrazole], the inhibition at 0.33 µM in assay [1] (0.33 μM) was determined as 87%. In addition, in assay [1], the IC50 was found to be 42 nM. Further, the inhibition at 0.1 µM at N-type calcium channel (setting [2]) is 5%; on N-type calcium channel (setting [3]), -22%.

With `COc1ccccc1-n1nc2c(c1-c1ccc(Cl)cc1)CC1(C2)O[C@@H](C)[C@@H](C)O1` (stereo partly drawn) [Compound 103, (4′R,5′S)-3-(4-chlorophenyl)-2-(2-methoxyphenyl)-4′,5′-dimethyl-2,6-dihydro-4H-spiro[cyclopenta[c]pyrazole-5,2′-[1,3]dioxolane]], the “% Inhibition (%) at 0.33 μM” value in assay [1] (0.33 μM) stood at 101%. For the same compound, the IC50 in assay [1] was 4.8 nM. Also, the inhibition at 0.1 µM was found to be 46% on N-type calcium channel (setting [2]) and 12% on N-type calcium channel (setting [3]). Besides, the “QPatch at High Frequency % Inhibition” value at N-type calcium channel (1 μM, high-frequency stimulation (15th pulse)) was 69%. At N-type calcium channel (setting [3]), the inhibition at 0.01 µM was -21%. Moreover, the “QPatch at Low Frequency % Inhibition” value on N-type calcium channel (low frequency, 1 μM) was 36%.

On to `CCOc1ccccc1-n1nc2c(c1-c1ccc(Cl)cc1)CC(N(C)S(=O)(=O)N(C)C)C2` (stereo not shown) [Compound 48, N-[3-(4-chlorophenyl)-2-(2-ethoxyphenyl)-2,4,5,6-tetrahydrocyclopenta[c]pyrazol-5-yl]-N,N′,N′-trimethylsulfamide], for which the inhibition at 0.33 µM in assay [1] (0.33 μM) was 97%. Further, the IC50 in assay [1] turned out to be 1.2 nM. Moreover, the values for the inhibition at 0.1 µM on N-type calcium channel (setting [2]) and on N-type calcium channel (setting [3]) were 63% and 52%, respectively.

As for `COc1ccccc1-n1nc2c(c1-c1ccc(Cl)cc1)C[C@H](OC1CCCCO1)C2` (stereo partly drawn) [Compound 76, (5S)-3-(4-chlorophenyl)-2-(2-methoxyphenyl)-5-(tetrahydro-2H-pyran-2-yloxy)-2,4,5,6-tetrahydrocyclopenta[c]pyrazole], in assay [1] (0.33 μM), the inhibition at 0.33 µM came to 92%. The IC50 in assay [1] came out at 28 nM. The inhibition at 0.1 µM on N-type calcium channel (setting [2]) worked out at 42%; at N-type calcium channel (setting [3]) it was 27%.

In the case of `COc1ccccc1-n1nc2c(c1-c1ccc(Cl)cc1)CC(CCNC(=O)OC(C)(C)C)C2` (stereo not shown) [Compound 13, tert-butyl{2-[3-(4-chlorophenyl)-2-(2-methoxyphenyl)-2,4,5,6-tetrahydrocyclopenta[c]pyrazol-5-yl]ethyl}carbamate], in assay [1], the IC50 was 38 nM. Further, the inhibition at 1 µM amounted to 67% at N-type calcium channel (setting [4]) and 42% at N-type calcium channel (setting [5]).

As to `COc1ccccc1-n1nc2c(c1-c1ccc(OC(C)C)nc1)C[C@@H](N(C)S(=O)(=O)N(C)C)C2` [Compound 57, N-{(5R)-2-(2-Methoxyphenyl)-3-[6-(1-methylethoxy)pyridin-3-yl]-2,4,5,6-tetrahydrocyclopenta[c]pyrazol-5-yl}-N,N′,N′-trimethylsulfamide], in assay [1] (0.33 μM), the inhibition at 0.33 µM came out at 99%. Moreover, in assay [1], the IC50 amounted to 18 nM. Further, the inhibition at 1 µM came to 83% on N-type calcium channel (setting [4]) and 75% on N-type calcium channel (setting [5]).

As to `COc1ccccc1-n1nc2c(c1-c1ccc(Cl)cc1)CC(OC(=O)N(C)C)C2` (stereo not shown) [Compound 28, 3-(4-chlorophenyl)-2-(2-methoxyphenyl)-2,4,5,6-tetrahydrocyclopenta[c]pyrazol-5-yl dimethylcarbamate], in assay [1], the IC50 is 15 nM. In addition, the values for the inhibition at 0.1 µM on N-type calcium channel (setting [2]) and on N-type calcium channel (setting [3]) were 45% and 25%, respectively.

As for `COc1ccccc1-n1nc2c(c1-c1ccc(Cl)cc1)CC1(C2)O[C@@H](C)[C@@H](C)O1` (stereo partly drawn) [Compound 102, (4′R,5′S)-3-(4-chlorophenyl)-2-(2-methoxyphenyl)-4′,5′-dimethyl-2,6-dihydro-4H-spiro[cyclopenta[c]pyrazole-5,2′-[1,3]dioxolane]], the inhibition at 0.33 µM in assay [1] (0.33 μM) was 97%. For the same compound, the IC50 in assay [1] is 7.6 nM. Further, the inhibition at 1 µM came to 58% at N-type calcium channel (setting [4]) and 42% at N-type calcium channel (setting [5]).

Turning to `CCOc1ccccc1-n1nc2c(c1-c1ccc(Cl)cc1)CC(OC(=O)N(C)C)C2` (stereo not shown) [Compound 30, 3-(4-chlorophenyl)-2-(2-ethoxyphenyl)-2,4,5,6-tetrahydrocyclopenta[c]pyrazol-5-yl dimethylcarbamate], the IC50 in assay [1] stood at 28 nM. Also, the inhibition at 0.1 µM at N-type calcium channel (setting [2]) stood at 25%; at N-type calcium channel (setting [3]), 9%.

Take `COc1ccccc1-n1nc2c(c1-c1ccc(Cl)cc1)CC1(C2)O[C@H](C)C[C@@H](C)O1` (stereo partly drawn) [Compound 100, (4′R,6′R)-3-(4-chlorophenyl)-2-(2-methoxyphenyl)-4′,6′-dimethyl-2,6-dihydro-4H-spiro[cyclopenta[c]pyrazole-5,2′-[1,3]dioxane]]: in assay [1] (0.33 μM), the inhibition at 0.33 µM was 101%. Moreover, in assay [1], the IC50 was 4.4 nM. The figures for the inhibition at 0.01 µM on N-type calcium channel (setting [2]) and at N-type calcium channel (setting [3]) were 21% and 10%, respectively. The results for the inhibition at 0.1 µM at N-type calcium channel (setting [2]) and on N-type calcium channel (setting [3]) were 69% and 46%, respectively. The inhibition at 1 µM stood at 83% at N-type calcium channel (setting [4]) and 72% on N-type calcium channel (setting [5]).

As for `CCOc1ccccc1-n1nc2c(c1-c1ccc(Cl)cc1)CC(n1cc([Si](C)(C)C)nn1)C2` (stereo not shown) [Compound 41, 3-(4-chlorophenyl)-2-(2-ethoxyphenyl)-5-[4-(trimethylsilyl)-1H-1,2,3-triazol-1-yl]-2,4,5,6-tetrahydrocyclopenta[c]pyrazole], in assay [1] (0.33 μM), the inhibition at 0.33 µM was 92%. The IC50 in assay [1] is 24 nM. In addition, the inhibition at 0.1 µM at N-type calcium channel (setting [2]) is 60%; at N-type calcium channel (setting [3]) it was 58%.
